Assay [1] addresses T1, cyclooxygenase (Rattus norvegicus, UniProt Q63921).
T1 construct: homogenates of RBL-1 cells; endogenous in cells; host or cells: RBL-1 (rat basophilic leukaemia) cells, homogenate
T1 sequence (Q63921 27-602): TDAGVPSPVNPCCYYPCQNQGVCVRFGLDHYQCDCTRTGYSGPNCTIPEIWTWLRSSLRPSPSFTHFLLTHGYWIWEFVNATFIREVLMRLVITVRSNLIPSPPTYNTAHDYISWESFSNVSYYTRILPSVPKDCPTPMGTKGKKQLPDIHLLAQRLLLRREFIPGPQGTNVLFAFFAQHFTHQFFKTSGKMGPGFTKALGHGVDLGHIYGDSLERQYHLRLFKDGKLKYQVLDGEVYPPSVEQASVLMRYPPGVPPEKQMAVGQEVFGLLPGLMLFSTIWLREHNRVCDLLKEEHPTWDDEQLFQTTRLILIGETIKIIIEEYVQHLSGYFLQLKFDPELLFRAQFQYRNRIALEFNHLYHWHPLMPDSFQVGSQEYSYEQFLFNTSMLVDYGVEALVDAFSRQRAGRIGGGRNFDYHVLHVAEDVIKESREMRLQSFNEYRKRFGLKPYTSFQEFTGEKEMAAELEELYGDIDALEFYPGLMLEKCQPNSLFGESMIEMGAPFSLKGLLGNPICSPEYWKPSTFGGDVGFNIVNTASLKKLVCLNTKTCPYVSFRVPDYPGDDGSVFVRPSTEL
Nature of the assay: Cyclooxygenase activity in homogenates of RBL-1 cells. It counts as biochemical. Particulars: concentration 0.5-1 μg/ml; negative = inhibition. An excerpt: (§1) Basophilic leukaemia cells from rats (RBL-1) synthesize both lipoxygenase and cyclooxygenase products from ^14 C-arachidonic acid with which they are supplied. […] The products formed were separated by thin layer chromatography and quantified in a scanner.

Assay [2] addresses T2, lipoxygenase (Rattus norvegicus, UniProt P12527).
T2 construct: homogenates of RBL-1 cells; endogenous in cells; host or cells: RBL-1 (rat basophilic leukaemia) cells, homogenate
T2 sequence (P12527 1-673): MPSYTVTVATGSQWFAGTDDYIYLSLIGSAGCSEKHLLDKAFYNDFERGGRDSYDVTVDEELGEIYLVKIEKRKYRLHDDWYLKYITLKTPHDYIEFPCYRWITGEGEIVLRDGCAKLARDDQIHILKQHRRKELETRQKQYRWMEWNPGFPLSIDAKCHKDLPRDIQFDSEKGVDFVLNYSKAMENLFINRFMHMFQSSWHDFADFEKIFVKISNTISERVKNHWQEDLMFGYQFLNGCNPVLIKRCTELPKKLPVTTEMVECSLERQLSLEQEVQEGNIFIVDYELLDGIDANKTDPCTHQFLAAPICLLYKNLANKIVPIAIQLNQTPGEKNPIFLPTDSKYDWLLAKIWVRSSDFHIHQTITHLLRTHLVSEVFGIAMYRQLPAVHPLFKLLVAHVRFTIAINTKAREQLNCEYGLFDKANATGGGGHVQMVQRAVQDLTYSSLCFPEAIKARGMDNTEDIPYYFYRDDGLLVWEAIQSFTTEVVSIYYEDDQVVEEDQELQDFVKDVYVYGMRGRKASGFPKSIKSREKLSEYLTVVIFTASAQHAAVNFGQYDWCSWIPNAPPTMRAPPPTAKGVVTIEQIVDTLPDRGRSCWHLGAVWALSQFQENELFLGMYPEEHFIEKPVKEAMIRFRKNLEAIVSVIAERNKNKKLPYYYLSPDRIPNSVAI
Nature of the assay: Lipoxygenase activity in homogenates of RBL-1 cells. In kind it is biochemical. To be noted: concentration 0.5-1 μg/ml; negative = inhibition.
Text: as §1

For assay [3], the target named is T3, 12-lipoxygenase (Homo sapiens, UniProt P18054).
T3 construct: washed human platelets; endogenous in cells; host or cells: washed human platelets
T3 sequence (P18054 1-663): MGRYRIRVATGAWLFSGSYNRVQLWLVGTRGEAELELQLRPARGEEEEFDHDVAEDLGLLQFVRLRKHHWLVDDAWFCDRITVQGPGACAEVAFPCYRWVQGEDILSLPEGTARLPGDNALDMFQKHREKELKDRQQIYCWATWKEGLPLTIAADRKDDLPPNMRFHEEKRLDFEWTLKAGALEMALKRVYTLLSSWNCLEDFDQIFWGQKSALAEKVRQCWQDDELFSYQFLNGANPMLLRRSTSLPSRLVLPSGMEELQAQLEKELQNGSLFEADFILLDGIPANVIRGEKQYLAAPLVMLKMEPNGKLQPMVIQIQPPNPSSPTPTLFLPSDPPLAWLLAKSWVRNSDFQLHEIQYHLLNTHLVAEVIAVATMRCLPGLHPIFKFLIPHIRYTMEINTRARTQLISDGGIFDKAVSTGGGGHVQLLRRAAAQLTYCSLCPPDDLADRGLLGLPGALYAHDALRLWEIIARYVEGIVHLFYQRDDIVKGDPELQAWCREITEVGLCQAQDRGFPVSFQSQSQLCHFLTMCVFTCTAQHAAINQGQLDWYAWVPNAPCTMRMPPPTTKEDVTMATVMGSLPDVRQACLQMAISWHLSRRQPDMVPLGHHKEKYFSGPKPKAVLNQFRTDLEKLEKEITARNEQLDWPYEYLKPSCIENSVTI
Nature of the assay: Arachidonic acid metabolism in human platelets: 12-lipoxygenase activity. In kind it is cell-based. On the procedure:
(§2) The metabolism of radioactively labelled arachidonic acid on washed human platelets is utilised in this test method. In this in vitro test, the radioactively labelled metabolites are extracted from the reaction mixture and separated by thin layer chromatography. The autoradiogram is evaluated with a thin layer scanner. Under these test conditions, the labelled metabolites are separated from the unreacted arachidonic acid and can then be evaluated quantitatively.

The target in assay [4] is T4, 5-lipoxygenase (Homo sapiens, UniProt P09917).
T4 construct: endogenous in cells; host or cells: human polymorphonuclear leukocytes from heparinized whole blood
T4 sequence (P09917 1-674): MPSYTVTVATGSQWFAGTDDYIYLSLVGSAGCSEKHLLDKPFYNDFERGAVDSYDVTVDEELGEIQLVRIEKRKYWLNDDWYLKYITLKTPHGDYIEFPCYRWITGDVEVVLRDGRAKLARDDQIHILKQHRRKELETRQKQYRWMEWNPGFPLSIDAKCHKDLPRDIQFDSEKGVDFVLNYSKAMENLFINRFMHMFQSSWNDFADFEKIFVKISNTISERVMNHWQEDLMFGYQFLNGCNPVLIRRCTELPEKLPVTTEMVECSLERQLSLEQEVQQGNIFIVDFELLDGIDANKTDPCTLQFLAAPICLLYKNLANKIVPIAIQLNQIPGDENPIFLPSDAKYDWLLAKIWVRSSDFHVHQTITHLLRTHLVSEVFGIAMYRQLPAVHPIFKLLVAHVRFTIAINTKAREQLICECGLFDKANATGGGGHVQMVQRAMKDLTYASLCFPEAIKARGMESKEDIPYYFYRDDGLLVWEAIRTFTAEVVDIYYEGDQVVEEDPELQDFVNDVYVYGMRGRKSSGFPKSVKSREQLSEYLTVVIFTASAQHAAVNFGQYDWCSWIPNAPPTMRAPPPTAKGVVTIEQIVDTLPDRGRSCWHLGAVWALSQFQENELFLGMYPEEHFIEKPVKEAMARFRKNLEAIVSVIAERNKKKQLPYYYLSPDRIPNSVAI
Nature of the assay: Lipoxygenase activity (LTB4 synthesis) in human PMN leukocytes stimulated with A 23187. It counts as cell-based. Particulars: for inhibition at 10 µg/mL: at 10 μg/ml, read-out: Inhibition of LTB4 synthesis in human PMN's; for Effective threshold concentration, inhibition of LTB4 synthesis: human PMN's. Here is the method:
The polymorphonuclear leukocytes of humans metabolize arachidonic acid to give 5-hydroxy-5,8,11,14-eicosatetraenoic acid (5-HETE) and leukotriene B4 (5S, 12R-dihydroxy-6-cis, 8,10-trans-14ciseicosatetraenoic acid). Inhibition of the release of 5-HETE and leukotriene B4 from leukocytes is a measure of the lipoxygenase-inhibiting effect of the compounds according to the invention.
After 15 minutes, the lipoxygenase products were extracted from the acidified incubation medium and separated by means of HPLC.

Assay [5] concerns the target T5, cyclooxygenase (Homo sapiens, UniProt P23219).
T5 construct: washed human platelets; endogenous in cells; host or cells: washed human platelets
Nature of the assay: Arachidonic acid metabolism in human platelets: cyclooxygenase activity. It counts as cell-based. On the procedure:
as §2

Assay [6] deals with cyclooxygenase. To be noted: background statement; cited from earlier work.
Assay [7] has as its system carrageenan-induced oedema of the rat paw. Nature of the assay: Carrageenan-induced oedema of the rat paw. In kind it is in vivo. Particulars: oral, 2.5 mg/kg, rats, 5 hours after oedema provocation. Here is the method: The antiinflammatory action of the test substances following oral administration was determined with the aid of carrageenan-induced oedema of the rat paw.
The experiments were carried out with male rats, strain: Bor:WLSW (SPF-Cpb); weight 150 to 220 g. One hour before inducing the oedema (0.1 ml of carrageenan suspension/animal, subplantar injection), the substance to be tested was administered to the animals as a suspension in tragacanth with the aid of a stomach tube; as a control, a second group of animals was treated with tragacanth without the substance.
The paw volumes were measured by the method of F. Kemper and G. Ameln Z. exp.
(In general: In the carrageenan paw model, swelling and tenderness develop within hours.)

Assay [8] deals with release of leukotrienes (SRS-A). Nature of the assay: Passive peritoneal anaphylaxis (rats). It counts as in vivo, rat. Particulars: 100 mg/kg perorally. On the procedure:
The effect of substances on the release of mediators, in particular the release of leukotrienes, is recorded with this in vivo method. […] Histamine is not released during this, so that the lipoxygenase-inhibiting action of test substances can be investigated selectively.

These results are taken from patent US4698344A, “1-Heteroaryl-4-aryl-pyrazolin-5-ones for use as medicaments” (priority 1984, dated 1987).

Each structure is given as a SMILES string.

T5 sequence (P23219 24-599): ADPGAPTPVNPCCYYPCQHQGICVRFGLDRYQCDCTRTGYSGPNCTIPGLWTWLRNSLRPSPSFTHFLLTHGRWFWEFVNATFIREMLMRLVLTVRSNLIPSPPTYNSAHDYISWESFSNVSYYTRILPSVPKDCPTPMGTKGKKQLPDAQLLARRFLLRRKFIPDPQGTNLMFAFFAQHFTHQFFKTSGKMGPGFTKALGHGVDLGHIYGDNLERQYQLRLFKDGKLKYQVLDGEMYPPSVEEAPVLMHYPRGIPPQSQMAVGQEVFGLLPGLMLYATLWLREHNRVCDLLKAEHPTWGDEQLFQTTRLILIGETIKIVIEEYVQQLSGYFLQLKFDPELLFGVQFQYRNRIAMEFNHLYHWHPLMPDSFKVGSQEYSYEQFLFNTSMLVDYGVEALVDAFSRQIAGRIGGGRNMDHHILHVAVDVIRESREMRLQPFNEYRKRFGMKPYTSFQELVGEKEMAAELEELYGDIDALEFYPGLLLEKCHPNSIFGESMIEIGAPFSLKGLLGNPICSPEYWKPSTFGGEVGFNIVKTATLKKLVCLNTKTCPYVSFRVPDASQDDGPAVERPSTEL

For the molecule `COc1ccc(-c2c[nH]n(-c3ncccn3)c2=O)cc1` [Example 113], the “Action on cyclooxygenase (CO): Effect” value in assay [1] was -11%. For the same molecule, in assay [2], the “Action on lipoxygenase (LO): Effect” value is given as -71%.
For orientation: inhibition means the change of the read-out against control, counted positive when it falls. On to `Cc1[nH]n(-c2ccc(Cl)cn2)c(=O)c1-c1ccccc1` [Example 63], for which the “Inhibition (threshold concentration), 12-lipoxygenase” value (“Inhibition … 12-lipoxygenase” below) in assay [3] was 1 to 10 µg/mL. In assay [4], the inhibition at 10 µg/mL is 100% and the “Effective threshold concentration, inhibition of LTB4 synthesis” value lay within 1 to 10 µg/mL. Further, the “Inhibition (threshold concentration), cyclooxygenase” value (from here on “Inhibition … cyclooxygenase”) in assay [5] lay in the range of 1 to 10 µg/mL.
On to `CC(Cc1ccc(O)c(O)c1)C(C)Cc1ccc(O)c(O)c1` (centres unmarked) [nordihydroguaretic acid], for which, in assay [6], the “cyclooxygenase activity / potency of known lipoxygenase inhibitors (in words)” value is listed as “either simultaneously active as cyclooxygenase inhibitors or active only at very high concentrations”.
For `Cc1[nH]n(-c2ccccn2)c(=O)c1-c1ccccc1` [Example 49], the “% inhibition of the carrageenan oedema” value in assay [7] came to 16%.
Consider `O=c1c(-c2ccccc2)c[nH]n1-c1ccc([N+](=O)[O-])cn1` [Example 69], for which, in assay [7], the “% inhibition of the carrageenan oedema” value was determined as 34%.
Same read-out and setting: in the case of `COc1ccc(-c2c[nH]n(-c3ccccn3)c2=O)cc1` [Example 18] it was 22%.
On to `O=c1c(-c2cccc(C(F)(F)F)c2)c[nH]n1-c1ccccn1` [Example 27], for which the “% inhibition, passive peritoneal anaphylaxis” value in assay [8] was 47%.
As for `Cc1ccccc1-c1c[nH]n(-c2ccccn2)c1=O` [Example 24], the “Action on cyclooxygenase (CO): Effect” value in assay [1] is recorded as -2%. In addition, in assay [2], the “Action on lipoxygenase (LO): Effect” value is -34%.
In the case of `O=c1c(-c2ccccc2F)c[nH]n1-c1ccccn1` [Example 8], in assay [1], the “Action on cyclooxygenase (CO): Effect” value was “+3%”. Further, the “Inhibition … 12-lipoxygenase” value in assay [3] was 1 to 10 µg/mL. In assay [4], the inhibition at 10 µg/mL came out at 71% and the “Effective threshold concentration, inhibition of LTB4 synthesis” value fell in the range of 1 to 10 µg/mL. Moreover, the “Action on lipoxygenase (LO): Effect” value in assay [2] is listed as -73%. Besides, in assay [5], the “Inhibition … cyclooxygenase” value was 1 to 10 µg/mL.
Consider `O=c1c(-c2ccc(C(F)(F)F)cc2)c[nH]n1-c1ccccn1` [Example 28], for which the “Action on cyclooxygenase (CO): Effect” value in assay [1] is listed as “+5%”. In addition, the “% inhibition of the carrageenan oedema” value in assay [7] came to 21%. Moreover, in assay [2], the “Action on lipoxygenase (LO): Effect” value was -58%.
On to `Cc1cccc(-c2c[nH]n(-c3ccccn3)c2=O)c1` [Example 25], for which the “% inhibition, passive peritoneal anaphylaxis” value in assay [8] amounted to 64%.
Take `O=c1c(-c2ccc(Cl)c(Cl)c2)c[nH]n1-c1ccccn1` [Example 16]: the “Action on cyclooxygenase (CO): Effect” value in assay [1] is -19%. Moreover, in assay [3], the “Inhibition … 12-lipoxygenase” value was in the range of 1 to 10 µg/mL. In assay [4], the inhibition at 10 µg/mL was 85% and the “Effective threshold concentration, inhibition of LTB4 synthesis” value was 1 to 10 µg/mL. For the same molecule, the “Action on lipoxygenase (LO): Effect” value in assay [2] is listed as -76%. Further, the “Inhibition … cyclooxygenase” value in assay [5] was in the range of 1 to 10 µg/mL.
For the molecule `O=c1c(-c2ccccc2)c[nH]n1-c1ncc(Cl)cn1` [Example 130], the “% inhibition of the carrageenan oedema” value in assay [7] is 38%.
For the molecule `O=c1c(-c2ccccc2F)c[nH]n1-c1ncccn1` [Example 104], the “Action on cyclooxygenase (CO): Effect” value in assay [1] is listed as “+23%”. The “Action on lipoxygenase (LO): Effect” value in assay [2] was -46%.
Consider `O=c1c(-c2ccccc2)c[nH]n1-c1ncccn1` [Example 103, 1-pyrimid-2-yl-4-phenyl-pyrazolin-5-one], for which the “Action on lipoxygenase (LO): Effect” value in assay [2] is -42%.
As to `CCCCCC#CCC#CCC#CCC#CCCCC(=O)O` [5,8,11,14-eicosatetraynoic acid], in assay [6], the “cyclooxygenase activity / potency of known lipoxygenase inhibitors (in words)” value was “either simultaneously active as cyclooxygenase inhibitors or active only at very high concentrations”.
Regarding `COc1ccccc1-c1c[nH]n(-c2ccc(Cl)cn2)c1=O` [Example 58], the “Action on cyclooxygenase (CO): Effect” value in assay [1] is -17%. In assay [2], the “Action on lipoxygenase (LO): Effect” value is on record as -66%.
On to `O=c1c(-c2ccc(C(F)(F)F)cc2)c[nH]n1-c1ncc(Cl)cn1` [Example 135], for which, in assay [7], the “% inhibition of the carrageenan oedema” value was determined as 46%.
`O=C1CCN(c2ccccc2)N1` [phenidone]: the “cyclooxygenase activity / potency of known lipoxygenase inhibitors (in words)” value in assay [6] was “either simultaneously active as cyclooxygenase inhibitors or active only at very high concentrations”.
